Measurements from patent US12466856B2, “Echinocandin analogues and preparation method therefor” (SHANGHAI SENHUI MEDICINE CO., LTD., priority 2019, dated 2025).
Read-outs that look alike come from different tables or passages of the source. Starred links: 1 amine or outer side, 2 acyl side, 3 side chain; linkers in the order of their positions; H or OH if unused. Positions of bridges follow the written chain, without caps; N, C: chain ends. Non-standard residues stand in square brackets, D forms with d. Residues, ends and D or L forms follow the SMILES beside them. *: point of attachment. Orn(4R-OH,5R-OCH2CH2NMe3+) = C[N+](C)(C)CCO[C@@H](N[*:3])[C@H](O)C[C@H](N[*:1])C(=O)[*:2]; hTyr(3S-OH,4S-OH) = N[C@H](C(=O)O)[C@H](O)[C@@H](O)c1ccc(O)cc1; X1 = O=C(c1ccc(-c2ccc(-c3ccc(OCCCCCF)cc3)cc2)cc1)*; Pro(3S-OH,4S-Me) = C[C@H]1CN[C@H](C(=O)O)[C@H]1O; Hyp = O=C(O)[C@@H]1C[C@@H](O)CN1

Legend:
Type in all cases: cell-based
[1] = tested on: Candida tropicalis ATCC 750; assay: MIC assay (CLSI M27-A3), Candida tropicalis ATCC 750; conditions: Candida tropicalis, read-out: MIC, Candida tropicalis ATCC 750
Experimental: (§1) After a test compound was serially diluted, an MIC (minimum inhibitory concentration) assay was performed on the standard Candida strain and an MEC (minimum effective concentration) assay on the standard Aspergillus strain. The MIC assay was performed according to the guidelines of the Clinical and Laboratory Standards Institute (CLSI M27-A3) and the MEC assay according to the guidelines of the Clinical and Laboratory Standards Institute (CLSI M38-A2).
(§2) The frozen strain was passaged at least twice, and a single colony was picked and resuspended in normal saline or sterile water in a tube. The suspension was vortexed and adjusted to 0.5 McF (1×10^6 to 5×10^6 CFU/mL) using a spectrophotometer at wavelength 530 nm. The suspension was 50-fold diluted with normal saline and then 20-fold diluted with 1×RPMI 1640 broth (1×10^3 to 5×10^3 CFU/mL). 10 μL of the suspension was applied to an SDA plate for colony counting, with a range from about 10 to 50 single colonies.
(§3) At this time, the bacterium concentration in each well should be 0.5×10^3 to 2.5×10^3 CFU/mL.
(§4) For echinocandin drugs, Aspergillus was incubated at 28° C. for 21-26 h, and then the MEC results were read.
(§5) Yeast-type fungi: A disposable sealing film was applied to the 96-well plate, and the mixture was well mixed by shaking. Observation was performed through a plate reader with the naked eye. Comparisons were made to the growth control, and the minimum compound concentration corresponding to ≥50% growth inhibition was defined as MIC. Pictures were taken and saved using an automatic plate reader.

[2] = tested on: Candida glabrata ATCC 15126; assay: MIC assay (CLSI M27-A3), Candida glabrata ATCC 15126; conditions: Nakaseomyces glabratus, read-out: MIC, Candida glabrata ATCC 15126
Experimental: as §1, §2, §3, §4, §5

[3] = tested on: Aspergillus flavus ATCC 28539; assay: MEC assay (CLSI M38-A2), Aspergillus flavus ATCC 28539; conditions: first batch; 28° C., 21-26 h
Experimental: The MIC assay was performed according to the guidelines of the Clinical and Laboratory Standards Institute (CLSI M27-A3) and the MEC assay according to the guidelines of the Clinical and Laboratory Standards Institute (CLSI M38-A2).
Colonies on the plate were covered with about 1 mL of 0.85% normal saline or sterile water (polysorbate 20 was added at a final concentration of 0.1%-0.01%). […] The homogeneous upper layer of the suspension was transferred to a new sterile tube, which was then sealed and vortexed for 15 s (be careful as the suspension may produce an aerosol when the cover is removed). The concentration of the suspension was adjusted until an OD value of 0.09-0.13 was achieved using a spectrophotometer at 530 nm. […] 100 μL of sample was added to each well of the 96-well plate within 2 h after dilution (the final spore concentration in the susceptibility testing plate was at 0.4×10^4 to 5×10^4 CFU/mL).
Aspergillus: For echinocandin drugs, comparisons were made to the growth control under a plate reader, and the minimum drug concentration that could cause the hyphae to form small, round, compact hyphal particles was defined as MEC. For accurate determination of MEC values, the plate must not be vortexed before reading.

[4] = tested on: Candida parapsilosis ATCC 22019; assay: MIC assay (CLSI M27-A3), Candida parapsilosis ATCC 22019; conditions: Lodderomyces parapsilosis, ATCC22019, 24 h, read-out: MIC, Candida parapsilosis ATCC 22019
Experimental: as §1, §2, §3, §4, §5

[5] = tested on: Candida krusei ATCC 6258; assay: MIC assay (CLSI M27-A3), Candida krusei ATCC 6258; conditions: Pichia kudriavzevii, ATCC6258, 24 h, read-out: MIC, Candida krusei ATCC 6258
Experimental: as §1, §2, §3, §4, §5

[6] = tested on: Candida albicans ATCC 90029; assay: MIC assay (CLSI M27-A3), Candida albicans ATCC 90029; conditions: Candida albicans, read-out: MIC, Candida albicans ATCC 90029
Experimental: as §1, §2, §3, §4, §5

[7] = tested on: Meyerozyma guilliermondii ATCC 6260; assay: MIC assay (CLSI M27-A3), Meyerozyma guilliermondii ATCC 6260; conditions: Meyerozyma guilliermondii, read-out: MIC, Meyerozyma guilliermondii ATCC 6260
Experimental: as §1, §2, §3, §4, §5

[8] = ATCC750, first batch, 24 h, 35° C.
[9] = ATCC15126, first batch, 24 h, 35° C., ≥50% growth inhibition
[10] = ATCC90029, first batch, 24 h, 35° C., ≥50% growth inhibition
[11] = ATCC6260, first batch, 24 h, 35° C.

| SMILES | MIC [1, 8] | MIC [2, 9] | MEC, Aspergillus flavus ATCC 28539 [3] | MIC [4] | MIC [5] | MIC [6, 10] | MIC [7, 11] | MIC ([1]; ATCC750, 24 h) | MIC ([2]; ATCC15126, 24 h) | MIC ([6]; ATCC90029, 24 h) | MIC ([7]; ATCC6260, 24 h) |
| --- | --- | --- | --- | --- | --- | --- | --- | --- | --- | --- | --- |
| CCCCCOc1ccc(-c2ccc(-c3ccc(C(=O)N[C@H]4C[C@@H](O)[C@@H](OCC[N+]5(C)CCCC5)NC(=O)[C@@H]5[C@@H](O)[C@@H](C)CN5C(=O)[C@H]([C@@H](C)O)NC(=O)[C@H]([C@H](O)[C@@H](O)c5ccc(O)cc5)NC(=O)[C@@H]5C[C@@H](O)CN5C(=O)[C@H]([C@@H](C)O)NC4=O)cc3)cc2)cc1 [Example 5] | 0.016 mg/L | 0.125 mg/L | 0.031 µg/mL | 2 mg/L | 0.125 mg/L | 0.125 mg/L | 4 mg/L |  |  |  |  |
| CCCCCOc1ccc(-c2ccc(-c3ccc(C(=O)N[C@H]4C[C@@H](O)[C@@H](OCC[N+]5(C)CCCCC5)NC(=O)[C@@H]5[C@@H](O)[C@@H](C)CN5C(=O)[C@H]([C@@H](C)O)NC(=O)[C@H]([C@H](O)[C@@H](O)c5ccc(O)cc5)NC(=O)[C@@H]5C[C@@H](O)CN5C(=O)[C@H]([C@@H](C)O)NC4=O)cc3)cc2)cc1 [Example 10] | 0.031 mg/L | 0.5 mg/L | 0.031 µg/mL | 2 mg/L | 0.5 mg/L | 0.25 mg/L | 4 mg/L |  |  |  |  |
| C[C@@H](O)[C@@H]1NC(=O)[C@H]([C@H](O)[C@@H](O)c2ccc(O)cc2)NC(=O)[C@@H]2C[C@@H](O)CN2C(=O)[C@H]([C@@H](C)O)NC(=O)[C@@H](NC(=O)c2ccc(-c3ccc(-c4ccc(OCCCCCF)cc4)cc3)cc2)C[C@@H](O)[C@@H](OCC[N+](C)(C)C)NC(=O)[C@@H]2[C@@H](O)[C@@H](C)CN2C1=O [Example 11] (X1-[Orn(4R-OH,5R-OCH2CH2NMe3+)]T[Hyp][hTyr(3S-OH,4S-OH)]T[Pro(3S-OH,4S-Me)]; lactam 1-C) |  |  | 0.031 µg/mL | 4 mg/L | 0.5 mg/L |  |  | 0.031 mg/L | 0.5 mg/L | 0.125 mg/L | 2 mg/L |
